In paper PMC7023430, “4-Aminobenzoic Acid Derivatives: Converting Folate Precursor to Antimicrobial and Cytotoxic Agents” (Biomolecules, 2019):
Where two headings read alike, the source gives them in different places.

Assays:
[1] = tested on: Enterococcus faecalis ATCC 29212, CCM 4224; experiment: Antibacterial microdilution broth method, E. faecalis; format: cell-based; details: Enterococcus faecalis
[2] = tested on: Candida glabrata 20/I; experiment: Antifungal microdilution broth method, C. glabrata; format: cell-based; details: Nakaseomyces glabratus
Procedure, shortened: (§1)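 Panel covers five yeasts and three filamentous fungi tested by a slightly modified EUCAST microdilution protocol. Growth medium is glucose-supplemented (2%) RPMI-1640 with L-glutamine at pH 7.0 (MOPS). Endpoints are judged visually from duplicate runs.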

[3] = tested on: Staphylococcus aureus ATCC 29213, CCM 4223; experiment: Antibacterial microdilution broth method, S. aureus; format: cell-based
[4] = tested on: Lichtheimia corymbifera 272; experiment: Antifungal microdilution broth method, L. corymbifera; format: cell-based
Procedure, shortened: as §1

[5] = tested on: Mycobacterium kansasii 235/80; experiment: Antimycobacterial micromethod in Šula's medium, M. kansasii 235/80; format: cell-based
[6] = tested on: Candida albicans ATCC 44859; experiment: Antifungal microdilution broth method, C. albicans; format: cell-based
Procedure, shortened: as §1

[7] = tested on: methicillin-resistant Staphylococcus aureus ATCC 43300, CCM 4750 (MRSA); experiment: Antibacterial microdilution broth method, MRSA; format: cell-based; details: Staphylococcus aureus
[8] = tested on: M. kansasii 6509/96 (clinical isolate); experiment: Antimycobacterial micromethod in Šula's medium, M. kansasii 6509/96; format: cell-based; details: Mycobacterium kansasii
[9] = tested on: Staphylococcus epidermidis H 6966/08; experiment: Antibacterial microdilution broth method, S. epidermidis; format: cell-based; details: Staphylococcus epidermidis, H6966/08, S. epidermidis
[10] = tested on: Mycobacterium avium 330/88; experiment: Antimycobacterial micromethod in Šula's medium, M. avium; format: cell-based
[11] = tested on: ESBL-positive Klebsiella pneumoniae J 14368/08
[12] = tested on: Trichophyton interdigitale 445; experiment: Antifungal microdilution broth method, T. interdigitale; format: cell-based
Procedure, shortened: as §1

[13] = tested on: Pseudomonas aeruginosa ATCC 27853, CCM 3955; experiment: Antibacterial microdilution broth method, P. aeruginosa; format: cell-based; details: Pseudomonas aeruginosa, P. aeruginosa
[14] = tested on: Aspergillus fumigatus 231; experiment: Antifungal microdilution broth method, A. fumigatus; format: cell-based
Procedure, shortened: as §1

[15] = tested on: Escherichia coli ATCC 25922, CCM 3954; experiment: Antibacterial microdilution broth method, E. coli; format: cell-based; details: Escherichia coli
[16] = tested on: HepG2 cells; experiment: Cytotoxicity, CellTiter 96 assay; format: cell-based, human; details: Homo sapiens, HepG2, 24 h, 24 h incubation
Procedure: HepG2, human hepatocellular carcinoma cells (ATCC HB-8065; passage 5–8) purchased from Health Protection Agency Culture Collections (ECACC, Salisbury, UK) were cultured in Minimum Essentials Eagle Medium supplemented with 10% fetal bovine serum, 1% L-glutamine solution and non-essential amino acid solution (Sigma-Aldrich, St. Louis, MO, USA) in a humidified atmosphere containing 5% CO2 at 37 °C. For subculturing, the cells were harvested after trypsin/EDTA (Sigma-Aldrich, St. Louis, USA) treatment at 37 °C. To evaluate cytotoxicity, the cells treated with the tested substances were used as experimental groups whereas untreated HepG2 cells served as control groups.
The cells were seeded in a density of 10 000 cells per well in a 96-well plate. The following day the cells were treated with each of the tested substances dissolved in DMSO (maximal incubation concentration of DMSO was 1% v/v). The tested substances were prepared at different incubation concentrations in triplicates according to their solubility. Simultaneously, the controls representing 100% cell viability, 0% cell viability (the cells treated with 10% DMSO), no cell control and vehiculum controls were also involved in triplicates. After 24 h incubation in a humidified atmosphere containing 5% CO2 at 37 °C, the reagent from the kit CellTiter 96 AQueous One Solution Cell Proliferation Assay (CellTiter 96; Promega, Fitchburg, WI, USA) was added. After 2 h incubation at 37 °C absorbance of samples was recorded at 490 nm (TECAN, Infinita M200, Grödig, Austria). A standard toxicological parameter IC50 was calculated by nonlinear regression from a semilogarithmic plot of incubation concentration versus percentage of absorbance relative to untreated controls using GraphPad Prism software (version 6; GraphPad Software, Inc., La Jolla, CA, USA).
The CellTiter 96 assay used is based on the reduction of tetrazolium dye in living cells to formazan, which is then determined colorimetrically. This reduction is related to availability of NADH or NADPH. The decline in levels of these metabolically important compounds in the cell causes that the production of formazan is reduced. For quantitative comparison of cytotoxicity, the parameter IC50 was used.

[17] = 24 h incubation, read-out: MIC EF 24 h
[18] = 48 h incubation, read-out: MIC EF 48 h
[19] = 24 h incubation, read-out: MIC SA 24 h
[20] = 48 h incubation, read-out: MIC SA 48 h
[21] = 235/80, 168 h, 7 days incubation at 37 °C, read-out: MIC M. kansasii 235/80 7 d
[22] = 235/80, 336 h, 14 days incubation at 37 °C, read-out: MIC M. kansasii 235/80 14 d
[23] = 235/80, 504 h, 21 days incubation at 37 °C, read-out: MIC M. kansasii 235/80 21 d
[24] = ATCC44859, 24 h, read-out: MIC CA 24 h
[25] = ATCC44859, 48 h, read-out: MIC CA 48 h
[26] = 24 h incubation, read-out: MIC MRSA 24 h
[27] = 48 h incubation, read-out: MIC MRSA 48 h
[28] = 168 h, 7 days incubation at 37 °C, read-out: MIC M. kansasii 6509/96 7 d
[29] = 336 h, 14 days incubation at 37 °C, read-out: MIC M. kansasii 6509/96 14 d
[30] = 504 h, 21 days incubation at 37 °C, read-out: MIC M. kansasii 6509/96 21 d
[31] = 24 h incubation, read-out: MIC SE 24 h
[32] = 48 h incubation, read-out: MIC SE 48 h
[33] = 330/88, 336 h, 14 days incubation at 37 °C, read-out: MIC M. avium 330/88 14 d
[34] = 330/88, 504 h, 21 days incubation at 37 °C, read-out: MIC M. avium 330/88 21 d
[35] = 24 h incubation, read-out: MIC PA 24 h
[36] = 48 h incubation, read-out: MIC PA 48 h
[37] = 24 h incubation, read-out: MIC EC 24 h
[38] = 48 h incubation, read-out: MIC EC 48 h

O=C(O)c1ccc(N=Cc2cc(Br)ccc2O)cc1 [1d, 4-[(5-Bromo-2-hydroxybenzylidene)amino]benzoic acid]
250 µM: MIC [5, 21] | MIC [5, 22] | MIC ([14]; 24 h, read-out: MIC AF 24 h) | MIC ([14]; 48 h, read-out: MIC AF 48 h)
>250 µM: MIC KP-E 24 h [11] | MIC KP-E 48 h [11]
179 µM: IC50 [16]
62.5 µM: MIC ([2]; 24 h, read-out: MIC CG 24 h) | MIC ([2]; 48 h, read-out: MIC CG 48 h) | MIC [6, 24] | MIC [6, 25] | MIC [9, 31] | MIC [9, 32] | MIC ([12]; 72 h, read-out: MIC TI 72 h) | MIC ([12]; 120 h, read-out: MIC TI 120 h)
> 250 µM: MIC [1, 17] | MIC [1, 18] | MIC [3, 19] | MIC [3, 20] | MIC ([4]; 24 h, read-out: MIC LC 24 h) | MIC ([4]; 48 h, read-out: MIC LC 48 h) | MIC [7, 26] | MIC [7, 27] | MIC [13, 35] | MIC [13, 36] | MIC [15, 37] | MIC [15, 38]
500 µM: MIC [5, 23] | MIC [8, 28] | MIC [8, 29] | MIC [8, 30] | MIC [10, 33] | MIC [10, 34]

O=C(O)c1ccc(N=Cc2cc(I)ccc2O)cc1 [1e, 4-[(2-Hydroxy-5-iodobenzylidene)amino]benzoic acid]
125 µM: MIC ([14]; 24 h, read-out: MIC AF 24 h) | MIC ([14]; 48 h, read-out: MIC AF 48 h)
62.5 µM: MIC [6, 24] | MIC [6, 25] | MIC [9, 31] | MIC [9, 32]
113 µM: IC50 [16]
>250 µM: MIC KP-E 24 h [11] | MIC KP-E 48 h [11]
> 250 µM: MIC [1, 17] | MIC [1, 18] | MIC [3, 19] | MIC [3, 20] | MIC [13, 35] | MIC [13, 36] | MIC [15, 37] | MIC [15, 38]
250 µM: MIC [5, 21] | MIC [5, 22] | MIC [5, 23] | MIC [7, 26] | MIC [7, 27] | MIC [8, 28] | MIC [8, 29]
500 µM: MIC [8, 30] | MIC [10, 33] | MIC [10, 34]
31.2 µM: MIC ([2]; 24 h, read-out: MIC CG 24 h) | MIC ([2]; 48 h, read-out: MIC CG 48 h) | MIC ([12]; 72 h, read-out: MIC TI 72 h) | MIC ([12]; 120 h, read-out: MIC TI 120 h)
> 125 µM: MIC ([4]; 24 h, read-out: MIC LC 24 h) | MIC ([4]; 48 h, read-out: MIC LC 48 h)

O=C(O)c1ccc(N=Cc2cc([N+](=O)[O-])ccc2O)cc1 [1f, 4-[(2-Hydroxy-5-nitrobenzylidene)amino]benzoic acid]
250 µM: MIC [9, 31] | MIC [9, 32]
244 µM: IC50 [16]
>500 µM: MIC KP-E 24 h [11] | MIC KP-E 48 h [11]
500 µM: MIC [1, 17] | MIC [1, 18] | MIC [3, 19] | MIC [3, 20] | MIC ([4]; 24 h, read-out: MIC LC 24 h) | MIC ([4]; 48 h, read-out: MIC LC 48 h) | MIC [5, 21] | MIC [5, 22] | MIC [5, 23] | MIC [6, 24] | MIC [6, 25] | MIC [7, 26] | MIC [7, 27] | MIC [8, 28] | MIC [8, 29] | MIC [8, 30] | MIC ([12]; 72 h, read-out: MIC TI 72 h) | MIC ([12]; 120 h, read-out: MIC TI 120 h)
> 500 µM: MIC ([2]; 24 h, read-out: MIC CG 24 h) | MIC ([2]; 48 h, read-out: MIC CG 48 h) | MIC [13, 35] | MIC [13, 36] | MIC ([14]; 24 h, read-out: MIC AF 24 h) | MIC ([14]; 48 h, read-out: MIC AF 48 h) | MIC [15, 37] | MIC [15, 38]
> 1000 µM: MIC [10, 34]
1000 µM: MIC [10, 33]
